Values of other authors as cited in patent US5209933A, “Long acting calcium channel blocker composition” (Syntex (U.S.A.) Inc., priority 1991, dated 1993).
Like-named read-outs stand apart in the source and are kept apart here. Each block holds one compound with its values, some of them ahead of it.

Legend:
calcium channel = details: result in words
[1] = result in words
[2] = result in words; remark: listed apart in the source

Compound: 4-(3'-nitrophenyl)-2,6-dimethyl-1,4-dihydropyridine-3,5-dicarboxylic acid 3-methyl ester 5-(2-methoxyethyl)ester [nimodipine]
- calcium channel blocking activity (calcium channel): high degree of calcium channel blocking activity

Compound: CCOC(=O)C1=C(C)NC(C)=C(C(=O)OCC)C1c1ccccc1C(F)F [2,6-dimethyl-3,5-diethoxycarbonyl-4-(o-difluoromethylphenyl)-1,4-dichydropyridine]
- calcium channel blocking activity (calcium channel): high degree of calcium channel blocking activity

Compound: CCOC(=O)C1=C(C)NC(C)=C(C(=O)OC)C1c1cccc(Cl)c1Cl (stereo not drawn) [felodipine, 4-(2',3'-dichloro)-2,6-dimethyl-1,4-dihydropyridine-3,5-dicarboxylic acid 3-ethyl ester 5-methyl ester]
- calcium channel blocking activity (calcium channel): high degree of calcium channel blocking activity

Compound: COC(=O)C1=C(C)NC(C)=C(C(=O)OC(C)C)C1c1cccc([N+](=O)[O-])c1 (stereo not drawn) [isopropyl methyl 1,4-dihydro-2,6-dimethyl 4-(3-nitrophenyl)-3,5-pyridine dicarboxylate]
- calcium channel blocking activity (calcium channel): high degree of calcium channel blocking activity

- first pass metabolism [1]: extensive first pass metabolism
Compound: COC(=O)C1=C(C)NC(C)=C(C(=O)OCCN(C)Cc2ccccc2)C1c1cccc([N+](=O)[O-])c1 (stereo not drawn) [nicardipine, 2,6-dimethyl-4-(3'-nitrophenyl)-1,4-dihydropyridine-3,5-dicarboxylic acid-3-β-(N-benzyl-N-methylamino)-ethyl ester 5-methyl ester]
- calcium channel blocking activity (calcium channel): high degree of calcium channel blocking activity
- anti-ischemic properties [2]: possesses anti-ischemic properties

Compound: COC(=O)C1=C(C)NC(C)=C(C(=O)OC)C1c1ccccc1[N+](=O)[O-] [nifedipine, 4-(2'-nitrophenyl)-2,6-dimethyl-1,4-dihydropyridine-3,5-dicarboxylic acid dimethyl ester]
- calcium channel blocking activity (calcium channel): high degree of calcium channel blocking activity
- calcium channel blocking activity (calcium channel; listed as 4-(2'-nitrophenyl)-2,6-dimethyl-1,4-dihydropyridine-3,5-dicarboxylic acid dimeth): shows calcium channel blocking activity

Compound: CCCOCCOC(=O)C1=C(C)NC(C)=C(C(=O)OCCOCCC)C1c1cccc([N+](=O)[O-])c1 [niludipine, 4-(3'-nitrophenyl)-2,6-dimethyl-1,4-dihydropyridine-3,5-dicarboxylic acid di-n-propyloxethyl ester]
- calcium channel blocking activity (calcium channel): high degree of calcium channel blocking activity

Compound: COC(=O)C1=C(C)NC(C)=C(C(=O)OCC(C)C)C1c1ccccc1[N+](=O)[O-] (stereo not drawn) [nisoldipine, 4-(2'-nitrophenyl)-2,6-dimethyl-1,4-dihydropyridine-3,5-dicarboxylic acid 3-methyl ester 5-isobutyl ester]
- calcium channel blocking activity (calcium channel): high degree of calcium channel blocking activity

Compound: CCOC(=O)C1=C(C)NC(C)=C(C(=O)OC)C1c1cccc([N+](=O)[O-])c1 (stereo not drawn) [nitrendipine, 4-(3'-nitrophenyl)-2,6-dimethyl-1,4-dihydropyridine-3,5-dicarboxylic acid 3-ethyl ester 5-methyl ester]
- calcium channel blocking activity (calcium channel): high degree of calcium channel blocking activity
